Values quoted from earlier work as cited in patent publication US20230149383A1, “QUINOLINE COMPOUNDS FOR TREATING LUNG, LIVER, AND KIDNEY DISEASES, DISORDERS, OR CONDITIONS” (Aldeyra Therapeutics, Inc., priority 2020, published 2023).

What was measured:
ocular inflammation = conditions: Phase 2 and Phase 3 clinical trials; cited from earlier work
[1] = test system: precision-cut liver slices (PCLS); conditions: addition of 4-methylpyrazole; cited from earlier work
minimal change disease = conditions: Hogan et al. 2013; cited from earlier work

SMILES: CC(C)(O)c1nc2ccc(Cl)cc2cc1N [reproxalap]
- benefit in ocular inflammation, including dry eye disease and allergic conjunctivitis (ocular inflammation): beneficial

SMILES: Cc1cn[nH]c1 [4-methylpyrazole]
- ethanol-induced impairments (fatty liver, redox state, albumin secretion) [1]: reversed

SMILES: C[C@]12C=CC(=O)C=C1CC[C@@H]1[C@@H]2[C@@H](O)C[C@@]2(C)[C@H]1CC[C@]2(O)C(=O)CO [prednisolone]
- complete remission, share of adults with minimal change disease (minimal change disease): over 80%
